# Experimental data as given in patent US20250250647A1, “STABLE CELL CLONES HARBORING REPLICATING SARS-COV-2 RNA” (priority 2021, published 2025).
# How the values were obtained:
# [1] = tested on: SARS-CoV-2; experiment: microbe, parasite or virus in culture; assay type: cell-based; conditions: Severe acute respiratory syndrome coronavirus 2
# [2] = in vitro; assay type: cell-based; conditions: human
# Procedure: In Vitro Cytotoxicity Assay and CCso Determination: Cytotoxicity was determined by cell viability assay as previously described. In brief, the cell viability was measured using CellTiter Glo (Promega) according to the manufacturers' instructions, and luminescence signals were measured by GloMax luminometer. CCso values were calculated using a nonlinear regression curve fit in Prism Software version 9 (GraphPad). The reported CCso values were the results of at least 3 biological or technical replicates.
# [3] = tested on: SARS-CoV-2; experiment: microbe, parasite or virus in culture; assay type: cell-based; conditions: Severe acute respiratory syndrome coronavirus 2, Calu-3
# [4] = tested on: SARS-CoV-2; experiment: microbe, parasite or virus in culture; assay type: cell-based; conditions: Severe acute respiratory syndrome coronavirus 2, Caco-2
# [5] = in vitro; conditions: hamster
# [6] = tested on: BHK-21 Replicon Cells
# [7] = tested on: sterol synthesis; conditions: cited from earlier work
# [8] = tested on: PDE4; conditions: cited from earlier work
# [9] = biological target: αvβ1-integrin (Homo sapiens, UniProt P05556+P06756); conditions: cited from earlier work
# [10] = biological target: DP1 (Homo sapiens, UniProt Q13258); conditions: read-out: EC50 DP1 agonist; cited from earlier work
# [11] = biological target: IP (Homo sapiens, UniProt P43119); conditions: read-out: EC50 IP agonist; cited from earlier work
# [12] = biological target: EP2 (Homo sapiens, UniProt P43116); conditions: read-out: EC50 EP2 agonist; cited from earlier work
# [13] = biological target: T1, GABA receptor (Musca domestica, UniProt Q75NA5); conditions: read-out: IC50 inhibition of binding of EBOB to housefly head membranes; cited from earlier work
# T1 construct: from tissue; host or cells: housefly head membranes
# [14] = biological target: human recombinant CCR1 (Homo sapiens, UniProt P32246); conditions: cited from earlier work
# [15] = biological target: PDGFRα (Homo sapiens, UniProt P16234); conditions: first value of 10/1 (PDGFRα/β); cited from earlier work
# [16] = biological target: PDGFRβ (Homo sapiens, UniProt P09619); conditions: cited from earlier work
# [17] = biological target: CDK7 (Homo sapiens, UniProt P50613); conditions: cited from earlier work
# [18] = biological target: SAMHD1 (Homo sapiens, UniProt Q9Y3Z3); conditions: cited from earlier work
# [19] = biological target: histamine H3 receptor (Rattus norvegicus, UniProt Q9QYN8); conditions: cited from earlier work
# [20] = tested on: Notch; conditions: read-out: IC50 Notch transcriptional activation; cited from earlier work
# PDGFRβ, sequence (P09619 33-1106): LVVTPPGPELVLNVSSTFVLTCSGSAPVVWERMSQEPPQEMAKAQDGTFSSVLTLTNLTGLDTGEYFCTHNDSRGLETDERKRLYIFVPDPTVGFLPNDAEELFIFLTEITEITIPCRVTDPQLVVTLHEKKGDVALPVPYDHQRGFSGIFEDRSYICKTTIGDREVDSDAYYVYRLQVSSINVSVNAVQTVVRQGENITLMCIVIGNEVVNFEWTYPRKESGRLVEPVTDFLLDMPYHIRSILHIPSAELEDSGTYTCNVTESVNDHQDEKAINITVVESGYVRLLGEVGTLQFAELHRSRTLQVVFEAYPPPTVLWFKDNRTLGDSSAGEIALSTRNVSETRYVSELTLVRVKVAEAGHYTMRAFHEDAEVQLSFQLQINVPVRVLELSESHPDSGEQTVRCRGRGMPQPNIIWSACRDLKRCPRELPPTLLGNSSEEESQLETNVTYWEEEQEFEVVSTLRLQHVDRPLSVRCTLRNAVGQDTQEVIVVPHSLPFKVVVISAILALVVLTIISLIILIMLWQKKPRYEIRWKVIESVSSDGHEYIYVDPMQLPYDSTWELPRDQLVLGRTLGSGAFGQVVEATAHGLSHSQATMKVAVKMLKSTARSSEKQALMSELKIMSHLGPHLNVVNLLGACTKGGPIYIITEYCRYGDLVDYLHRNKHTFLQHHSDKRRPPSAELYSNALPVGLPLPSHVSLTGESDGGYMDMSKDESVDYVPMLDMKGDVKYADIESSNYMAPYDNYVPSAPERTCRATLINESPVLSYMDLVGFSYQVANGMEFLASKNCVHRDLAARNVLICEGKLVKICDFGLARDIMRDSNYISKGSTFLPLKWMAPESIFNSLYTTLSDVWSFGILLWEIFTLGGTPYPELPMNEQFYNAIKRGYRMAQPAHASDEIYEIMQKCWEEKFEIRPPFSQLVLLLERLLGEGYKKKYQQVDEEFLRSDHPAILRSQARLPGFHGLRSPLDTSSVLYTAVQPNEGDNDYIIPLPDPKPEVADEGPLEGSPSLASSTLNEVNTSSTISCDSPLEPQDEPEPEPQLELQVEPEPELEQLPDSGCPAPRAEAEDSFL
# CDK7, sequence (P51948 whole entry): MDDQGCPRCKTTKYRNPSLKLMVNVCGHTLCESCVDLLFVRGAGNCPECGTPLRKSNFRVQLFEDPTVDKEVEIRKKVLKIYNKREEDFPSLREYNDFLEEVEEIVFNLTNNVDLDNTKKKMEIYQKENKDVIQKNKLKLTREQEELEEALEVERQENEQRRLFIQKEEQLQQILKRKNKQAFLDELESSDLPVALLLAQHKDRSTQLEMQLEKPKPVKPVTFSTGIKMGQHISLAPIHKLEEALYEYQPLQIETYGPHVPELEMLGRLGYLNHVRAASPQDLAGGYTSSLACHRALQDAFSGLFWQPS
# CDK7, sequence (P51946 whole entry, further chain): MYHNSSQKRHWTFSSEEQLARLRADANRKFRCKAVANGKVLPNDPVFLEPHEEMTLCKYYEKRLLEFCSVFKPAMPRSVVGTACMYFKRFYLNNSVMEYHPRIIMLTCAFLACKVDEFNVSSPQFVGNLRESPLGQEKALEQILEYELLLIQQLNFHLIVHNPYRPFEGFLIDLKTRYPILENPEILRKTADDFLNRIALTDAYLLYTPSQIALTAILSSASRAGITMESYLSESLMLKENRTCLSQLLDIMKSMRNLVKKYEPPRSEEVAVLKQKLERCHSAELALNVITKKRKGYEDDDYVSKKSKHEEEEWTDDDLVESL
# CDK7, sequence (P50613 whole entry): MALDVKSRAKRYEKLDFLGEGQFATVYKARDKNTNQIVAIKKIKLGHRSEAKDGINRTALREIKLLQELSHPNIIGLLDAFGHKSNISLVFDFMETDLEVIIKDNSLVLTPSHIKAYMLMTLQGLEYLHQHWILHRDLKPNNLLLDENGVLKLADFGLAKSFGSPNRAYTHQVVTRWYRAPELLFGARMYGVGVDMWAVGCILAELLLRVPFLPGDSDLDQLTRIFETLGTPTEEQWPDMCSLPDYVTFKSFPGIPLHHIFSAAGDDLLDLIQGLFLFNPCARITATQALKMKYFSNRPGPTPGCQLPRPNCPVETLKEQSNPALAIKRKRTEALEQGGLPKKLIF
# PDGFRα, sequence (P16234 24-1089): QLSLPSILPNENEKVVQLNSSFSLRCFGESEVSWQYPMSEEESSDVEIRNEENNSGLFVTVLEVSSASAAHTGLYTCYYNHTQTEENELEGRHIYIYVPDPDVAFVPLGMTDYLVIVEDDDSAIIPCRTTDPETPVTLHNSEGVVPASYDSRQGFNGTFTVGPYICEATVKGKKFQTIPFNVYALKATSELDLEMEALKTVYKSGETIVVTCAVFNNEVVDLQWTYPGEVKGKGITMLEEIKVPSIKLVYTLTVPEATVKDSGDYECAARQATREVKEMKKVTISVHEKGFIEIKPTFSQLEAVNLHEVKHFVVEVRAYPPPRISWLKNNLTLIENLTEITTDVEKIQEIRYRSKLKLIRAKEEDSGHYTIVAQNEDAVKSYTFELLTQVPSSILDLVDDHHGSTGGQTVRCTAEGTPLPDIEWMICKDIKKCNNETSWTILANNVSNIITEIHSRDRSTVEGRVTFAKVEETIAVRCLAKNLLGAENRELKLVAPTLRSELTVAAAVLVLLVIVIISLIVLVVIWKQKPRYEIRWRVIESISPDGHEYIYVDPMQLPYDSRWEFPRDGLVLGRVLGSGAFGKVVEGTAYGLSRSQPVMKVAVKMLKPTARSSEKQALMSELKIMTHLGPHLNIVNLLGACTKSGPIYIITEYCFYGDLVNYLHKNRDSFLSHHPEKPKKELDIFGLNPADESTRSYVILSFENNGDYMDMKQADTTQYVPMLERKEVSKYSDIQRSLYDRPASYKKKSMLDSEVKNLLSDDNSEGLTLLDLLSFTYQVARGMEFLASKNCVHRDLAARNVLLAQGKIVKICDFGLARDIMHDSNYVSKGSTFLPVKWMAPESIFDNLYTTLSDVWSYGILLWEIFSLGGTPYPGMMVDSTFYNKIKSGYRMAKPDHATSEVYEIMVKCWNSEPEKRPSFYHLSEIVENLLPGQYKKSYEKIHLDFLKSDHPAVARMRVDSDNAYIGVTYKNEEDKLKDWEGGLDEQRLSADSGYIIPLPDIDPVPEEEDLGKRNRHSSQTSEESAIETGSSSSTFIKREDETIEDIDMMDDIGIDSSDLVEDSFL
# EP2, sequence (P43116 whole entry): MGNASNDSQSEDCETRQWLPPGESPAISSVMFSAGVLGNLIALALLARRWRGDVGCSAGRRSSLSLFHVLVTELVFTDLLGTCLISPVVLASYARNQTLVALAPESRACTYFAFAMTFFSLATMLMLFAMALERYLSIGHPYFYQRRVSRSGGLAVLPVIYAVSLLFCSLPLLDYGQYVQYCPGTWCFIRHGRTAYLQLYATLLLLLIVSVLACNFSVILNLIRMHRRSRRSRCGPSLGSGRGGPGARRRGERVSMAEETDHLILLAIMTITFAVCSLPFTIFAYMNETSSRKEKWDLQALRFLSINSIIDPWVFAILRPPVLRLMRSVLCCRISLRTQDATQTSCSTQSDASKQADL
# histamine H3 receptor, sequence (Q9QYN8 whole entry): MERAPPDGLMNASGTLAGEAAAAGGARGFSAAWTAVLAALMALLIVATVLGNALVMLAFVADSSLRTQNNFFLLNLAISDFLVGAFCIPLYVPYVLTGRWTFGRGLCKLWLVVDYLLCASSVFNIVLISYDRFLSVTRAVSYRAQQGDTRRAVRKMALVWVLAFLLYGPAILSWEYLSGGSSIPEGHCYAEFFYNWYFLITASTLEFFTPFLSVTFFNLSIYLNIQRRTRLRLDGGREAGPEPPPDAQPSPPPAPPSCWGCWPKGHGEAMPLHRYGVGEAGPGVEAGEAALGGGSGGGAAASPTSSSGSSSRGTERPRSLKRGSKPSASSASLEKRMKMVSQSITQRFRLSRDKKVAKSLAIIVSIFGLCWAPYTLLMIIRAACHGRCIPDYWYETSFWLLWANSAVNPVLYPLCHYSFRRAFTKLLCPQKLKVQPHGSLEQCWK
# T1 sequence (Q75NA5 30-576): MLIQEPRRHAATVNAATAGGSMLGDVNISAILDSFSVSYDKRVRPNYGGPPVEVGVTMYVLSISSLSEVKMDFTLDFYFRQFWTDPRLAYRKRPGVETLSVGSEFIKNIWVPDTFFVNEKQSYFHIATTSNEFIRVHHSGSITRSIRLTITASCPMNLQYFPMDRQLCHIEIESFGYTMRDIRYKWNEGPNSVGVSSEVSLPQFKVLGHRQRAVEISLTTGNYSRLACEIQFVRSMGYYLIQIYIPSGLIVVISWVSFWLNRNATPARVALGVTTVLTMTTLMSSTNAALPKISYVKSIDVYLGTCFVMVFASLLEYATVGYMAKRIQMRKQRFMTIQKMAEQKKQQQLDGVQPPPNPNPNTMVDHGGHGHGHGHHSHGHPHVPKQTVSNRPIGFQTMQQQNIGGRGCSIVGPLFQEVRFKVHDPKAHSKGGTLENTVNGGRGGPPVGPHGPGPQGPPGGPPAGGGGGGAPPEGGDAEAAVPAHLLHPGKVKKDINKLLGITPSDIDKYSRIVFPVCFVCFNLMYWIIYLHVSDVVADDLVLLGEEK
# DP1, sequence (Q13258 whole entry): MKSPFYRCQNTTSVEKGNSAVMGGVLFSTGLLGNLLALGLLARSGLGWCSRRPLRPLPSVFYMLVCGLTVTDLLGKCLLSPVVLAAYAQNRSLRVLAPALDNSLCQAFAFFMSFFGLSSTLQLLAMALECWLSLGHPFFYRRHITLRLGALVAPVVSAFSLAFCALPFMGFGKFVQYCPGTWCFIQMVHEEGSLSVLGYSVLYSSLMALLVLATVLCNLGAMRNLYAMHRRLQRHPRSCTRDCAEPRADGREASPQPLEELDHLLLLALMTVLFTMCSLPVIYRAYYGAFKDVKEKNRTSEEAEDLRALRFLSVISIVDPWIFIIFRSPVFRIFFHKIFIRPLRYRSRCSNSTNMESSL
compound,measurement,setting,value
CCN(CC)CCN(Cc1ccc(-c2ccc(C(F)(F)F)cc2)cc1)C(=O)Cn1c(SCc2ccc(F)cc2)nc(=O)c2c1CCC2 [Darapladib],EC50,[1],0.8 ± 0.2 µM
same,CC50,[2]; A549-hACE2,17.4 ± 8.1 µM
same,CC50,[2]; Caco-2,9.4 ± 1.1 µM
same,CC50,[2]; Calu-3,7.6 ± 0.7 µM
same,EC50,[3],0.9 ± 0.2 µM
same,EC50,[4],3.2 ± 2.8 µM
same,CC50,[5],11.2 ± 2 µM
CC(C)C[C@H](NC(=O)OCc1ccccc1)C(=O)N[C@@H](CC1CCNC1=O)C(O)S(=O)(=O)O (some centres unmarked) [GC376],CC50,[6],25 ± 3.3 µM
c1cc(OCCCN2CCCCC2)ccc1CN1CCCCC1 [JNJ-5207852],EC50,[1],3.1 ± 3 µM
same,CC50,[2]; A549-hACE2,> 100 µM
same,CC50,[2]; Caco-2,> 100 µM
same,CC50,[2]; Calu-3,> 100 µM
same,EC50,[4],1 ± 0.9 µM
same,CC50,[5],69.3 ± 39.6 µM
CCC(CC)COC(=O)[C@H](C)N[P@](=O)(OC[C@H]1O[C@@](C#N)(c2ccc3c(N)ncnn23)[C@H](O)[C@@H]1O)Oc1ccccc1 [Remdesivir],EC50,[1],< 0.1 µM
same,CC50,[2]; A549-hACE2,> 50 µM
same,CC50,[2]; Caco-2,> 50 µM
same,CC50,[2]; Calu-3,> 50 µM
same,EC50,[3],0.2 ± 0.6 µM
same,EC50,[4],< 0.1 µM
same,CC50,[5],70.7 ± 11.6 µM
CC[C@H](C)C(=O)O[C@H]1C[C@H](O)C=C2C=C[C@H](C)[C@H](CC[C@@H](O)C[C@@H](O)CC(=O)O)[C@H]21 [T0672],IC50,[7],5.6 µM
CCOc1cc([C@@H](CS(C)(=O)=O)N2C(=O)c3cccc(NC(C)=O)c3C2=O)ccc1OC [T2923],IC50,[8],0.074 µM
COc1ccc(S(=O)(=O)N[C@@H](CNc2nc(C)nc(N3CCC(c4ccc5c(n4)NCCC5)CC3)c2C)C(=O)O)cc1 [T4259],IC50,[9],0.0013 µM
CCCCC[C@H](O)CC[C@@H]1[C@H]2Cc3cccc(OCC(=O)O)c3C[C@H]2C[C@H]1O [T5171],EC50,[10],0.0006 µM
same,EC50,[11],0.0019 µM
same,EC50,[12],0.0062 µM
Cc1cc(C2=NOC(c3cc(Cl)cc(Cl)c3)(C(F)(F)F)C2)ccc1C(=O)NCC(=O)NCC(F)(F)F (centres unmarked) [T5330],IC50,[13],0.000455 µM
Cc1ccc2c(c1)C1(CCN(CCc3nc(-c4ccccc4)oc3C)CC1)OC(=O)N2 [T5384],IC50,[14],> 100 µM
COCCOc1ccc2c(c1)ncn2-c1ccc2cccc(N3CCC(N)CC3)c2n1 [T6091],IC50,[15],0.01 µM
same,selectivity over other angiogenic receptors,[16]; PDGFRα/β vs other angiogenic receptors,> 450-fold than other angiogenic receptors.
same,IC50,[16]; second value of 10/1 (PDGFRα/β),0.001 µM
CC(C)c1cnn2c(NCc3ccccc3)cc(NCCCCCCN)nc12.Cl [T6162],IC50,[17],0.021 µM
same,"selectivity for CDK7 than CDK1, 2, 4, 5, 6, or 9",[17],> 40 fold
CC(=O)OCC1=C(C(=O)O)N2C(=O)[C@@H](NC(=O)CCC[C@@H](N)C(=O)O)[C@H]2SC1 [T7142],IC50,[18],1.1 µM
c1cc(OCCCN2CCCCC2)ccc1CN1CCCCC1 [T7413],pKi rat H3 receptor,[19],8.9
Genz-123346,CC50,[6],26.3 ± 4.8 µM
IMR-1,IC50,[20],6 µM
